Laboratory results reported in patent US9676870B2, “Methods of treating atherosclerosis and aneurysm” (The Brigham and Women's Hospital, Inc., priority 2011, dated 2017).
“Also recorded” adds a separate entry of the source. Residues, ends and D or L forms follow the SMILES beside them. *: point of attachment. Cbz = O=C(OCc1ccccc1)*; CH2F = FC*

Experiments:
Type in all cases: cell-based
[1] = system: mouse peritoneal macrophages; test: Mouse peritoneal macrophage apoptosis / cell death (TUNEL, MTT); details: 50-100 μM EIPA, 50 μg/mL mouse IgE (SPE-7)
Description: (§1) Human macrophages were prepared by differentiating Ficoll gradient-separated monocytes from human blood in RPMI with 10% human serum (Gemini Bio-Products, West Sacramento, Calif.) for 10 days on Falcon PRIMARIA™ tissue culture dishes (Becton Dickinson Labware, Franklin Lakes, N.J.) without coating. Mouse thioglycolate (3%, Sigma, St. Louis, Mo.)-stimulated peritoneal macrophages were prepared from WT C57BL/6 mice (Jackson Laboratory), Fcer1a^−/− mice (congenic C57BL/6, N>8) (21), Tlr2^−/− mice (Jackson Laboratory, N16), and […] (Jackson Laboratory, C57BL/6, N8). Cells were cultured in RPMI-1640 with 10% fetal bovine serum (FBS). Human aortic SMCs and ECs were obtained from human donor aortas and subcultured at passages 2-5 in DMEM containing 10% FBS (for SMCs), or in medium 199 containing 20% FBS (for ECs).
(§2) To detect IgE-induced apoptosis, human and mouse macrophages and HuSMC were cultured on 8-well chamber slides, 96-well plates, or 6-well plate pre-coated with 1% gelatin. […]

human macrophages [2] = test: IgE-induced human macrophage cell death (MTT assay); details: human macrophages from most donors, IgE 50 μg/mL
Description: as §1, §2

human macrophages [3] = test: IgE-induced human macrophage IL6 secretion; details: human macrophages from most donors; IgE 50 μg/mL
Description: as §1
(§3) To detect cytokine production, cells were starved in corresponding media containing 0.5% FBS overnight, then incubated for 2 days in starvation media containing IgE (50 μg/mL for macrophages; 100 μg/mL for SMCs and ECs). Mouse poorly cytokinergic monomeric IgE H1 DNP-ε-206 (50 μg/mL) (34) and highly cytokinergic aggregated IgE SPE-7 (50 μg/mL) (Sigma) with or without LPS (100 ng/mL), ox-LDL (50 μg/mL), or DNP-HSA (10 ng/mL) were used to stimulate mouse macrophages. Human IgE was obtained from Immunology Consultants Laboratory, Inc. (Newberg, Oreg., RA-80E). […]

[4] = system: mouse peritoneal macrophages; test: Mouse peritoneal macrophage IL6 / MCP-1 production (ELISA, real-time PCR)
Description: as §1, §3

human macrophages [5] = test: IgE-induced human macrophage medium pH reduction
Description: as §1, §2

[6] = system: human monocyte-derived macrophages; test: Human monocyte-derived macrophage apoptosis (TUNEL staining)
Description: as §1, §2

HuECs = test: Cultured human EC (HuEC) stimulation: immunoblot, cell death; details: IFN-γ 20 ng/mL, 50 μg lysate
Description: as §1, §3

HuSMCs = test: Cultured human aortic SMC (HuSMC) stimulation: immunoblot, cytokines, cell death; details: IFN-γ 20 ng/mL, 50 μg lysate
Description: as §1, §3

CCN(c1nc(N)c(C(=O)NC(=N)N)nc1Cl)C(C)C [EIPA, ethylisopropylamiloride]
blocking of IgE-induced macrophage apoptosis [1]: blocked significantly | blocking of IgE-induced cell death (human macrophages [2]): significantly blocked | blocking of IgE-induced IL6 secretion (human macrophages [3]): significantly blocked | blocking of IgE-induced macrophage secretion of IL6 ([4]; 50-100 μM EIPA, 50 μg/mL mouse IgE (SPE-7)): blocked significantly | blocking of IgE-induced medium color change and pH reduction (human macrophages [5]; 10 μM EIPA, IgE 50 μg/mL): completely blocked | pH change by EIPA treatment alone (human macrophages [5]; EIPA alone, no IgE): did not change pH | cell death caused by EIPA alone ([6]; 10 μM EIPA, same condition as LPS, 2-3 days, data not shown): did not cause any cell death

COC(=O)C[C@H](NC(=O)[C@H](C)NC(=O)[C@@H](NC(=O)OCc1ccccc1)C(C)C)C(=O)CF [ZVAD-FMK] (Cbz-Val-Ala-Asp(OMe)-CH2F)
blocking of IgE-induced human macrophage apoptosis ([6]; ZVAD-FMK 20 μM, IgE 50 μg/mL): blocked; also recorded: efficiently blocks

dinitrophenyl-human serum albumin [DNP-HSA]
impact of antigen on SPE-7 or H1 DNP-ε-206 in macrophage activity assays ([4]; 10 ng/mL DNP-HSA, pH, cell death and IL6 assays): no significant impact

B1: IFN-γ: inflammatory cytokine (protein, UniProt P01579 24-161, looked up)
Interferon gamma: QDPYVKEAENLKKYFNAGHSDVADNGTLFLGILKNWKEESDRKIMQSQIVSFYFKLFKNFKDDQSIQKSVETIKEDMNVKFFNSNKKKRDDFEKLTNYSVTDLNVQRKAIHELIQVMAELSPAAKTGKRKRSQMLFRG
FcεR1α expression in ECs (HuECs): induced FcεR1α expression | FcεR1α expression in SMCs (HuSMCs): induced FcεR1α expression
